Data set [1] can be described thus: Absorption spectrum and colour of the n-decane solution of the dye. It counts as physicochemical. The conditions noted are these: for Gram extinction coefficient: decane, at the absorption maximum wavelength; for Color of solution / Absorption maximum wavelength: n-decane solution; for Absorption maximum wavelength: wavelength range 350-800 nm. The method, then:
(§1) The dye was added to n-decane, and this mixture was subjected to an ultrasonic treatment at 30° C. and ordinary pressure. When the dye completely dissolved, an additional amount of the dye was added so that the dye partly remained undissolved. The mixture thus treated was allowed to stand at room temperature (25° C.) for 12 hours and then subjected to centrifugal filtration with a 0.1-μm filter to obtain a saturated solution of the dye. This solution was diluted to an appropriate concentration and examined for absorption spectrum.
(§2) From values of absorption maximum wavelength in the wavelength range of 350-800 nm, gram extinction coefficient, and molar extinction coefficient which had been determined beforehand at an appropriate concentration and from the dilution ratio and the absorption spectrum of the diluted solution, the solubility (% by weight) and the product of the molar extinction coefficient at the absorption maximum wavelength and the molar concentration of the saturated solution were calculated.

A short description of data set [2]: Solubility of the dye in n-decane (saturated solution, 25° C., ordinary pressure). Type of data set: physicochemical. The following applies: for Solubility compared with the comparative compound: from Table 1; for [Molar extinction coefficient at absorption maximum wavelength] × [molar concentration of saturated solution]: saturated solution at 25° C.; for Solubility (decane): saturated solution, 25° C., ordinary pressure, 0.1-μm filter. The procedure:
as §1, §2

Regarding `CCCCc1nn(C(C)(C)C)c(O)c1N=Nc1ccc(N=Nc2ccccc2)cc1` [1-1], in data set [1], the Gram extinction coefficient amounted to 62000 cm^2g^−1, the Color of solution entry is reported as “yellow” and the Absorption maximum wavelength was 417 nm. In addition, in data set [2], the “Solubility compared with the comparative compound” value is given as “higher solubility than the comparative compound”, the “[Molar extinction coefficient at absorption maximum wavelength] × [molar concentration of saturated solution]” value was 1900 cm⁻¹ and the “Solubility (decane)” value was determined as 4.2 wt %.
In the case of `CCCCc1ccc(N=Nc2ccc(N=Nc3c(CCCC)nn(C(C)(C)C)c3O)cc2)cc1` [1-2], in data set [1], the Gram extinction coefficient amounted to 61000 cm^2g^−1, the Color of solution result was “yellow” and the Absorption maximum wavelength is given as 421 nm. Also, in data set [2], the “Solubility compared with the comparative compound” value was “higher solubility than the comparative compound”, the “[Molar extinction coefficient at absorption maximum wavelength] × [molar concentration of saturated solution]” value was found to be 13000 cm⁻¹ and the “Solubility (decane)” value came to 30 wt %.
As for `CCc1nn(C(C)(C)C)c(O)c1N=Nc1ccc(N=Nc2ccccc2)cc1` [1-3], in data set [1], the Gram extinction coefficient was determined as 69000 cm^2g^−1, the Color of solution result is listed as “yellow” and the Absorption maximum wavelength is on record as 415 nm. Moreover, in data set [2], the “Solubility compared with the comparative compound” value is “higher solubility than the comparative compound”, the “[Molar extinction coefficient at absorption maximum wavelength] × [molar concentration of saturated solution]” value came to 1400 cm⁻¹ and the “Solubility (decane)” value is recorded as 3.1 wt %.
As to `Cc1nn(-c2ccccc2)c(O)c1N=Nc1ccc(N=Nc2ccccc2)cc1` [compound 1, reference compound], in data set [1], the Gram extinction coefficient was 97000 cm^2g^−1, the Color of solution entry is recorded as “almost no” and the Absorption maximum wavelength came to 416 nm. Besides, in data set [2], the “[Molar extinction coefficient at absorption maximum wavelength] × [molar concentration of saturated solution]” value amounted to 10 cm⁻¹ and the “Solubility (decane)” value is reported as 0.014 wt %.

Source of the values: US8143382B2, “Pyrazole disazo dye and ink containing the dye” (Mitsubishi Chemical Corporation, priority 2007, dated 2012).
